Data: patent publication US20230052740A1, “MODULATORS OF CIRCADIAN RHYTHMS AND USES THEREOF” (The Regents of the University of California, priority 2019, published 2023)
Where two headings read alike, the source gives them in different places.

Legend:
[1] = target: T1, hMT1 (Homo sapiens, UniProt P48039); assay: cAMP assay (GloSensor), isoproterenol-stimulated cAMP in HEK cells; assay type: cell-based; design: expressed in transfected cells; host or cells: HEK-T (HEK-293 T) cells, co-transfected with GloSensor DNA; settings: for hMT1 pEC50: FIG. 3D-3F, transiently expressed receptor, isoproterenol-stimulated cAMP production; for inverse agonist efficacy: at MT1; for selectivity for MT1 over MT2: cAMP, inverse agonists
Experimental: HEK-293 T cells were maintained with complete Dulbecco's modified Eagle's medium (DMEM), which is composed of 10% fetal bovine serum (FBS), 2 mM L-glutamine, 100 units/ml penicillin G, 100 μg/ml streptomycin at 37° C. in the presence of 5% CO2
MT1 and MT2 receptors were tested using Promega's spilt luciferase based GboSensor cAMP biosensor technology. HEK-T cells were plated in 15 cm cell culture dish (at a density of 18 million cells) containing DMEM composed of 10% dialyzed FBS, 2 mM L-glutamine, 100 units/ml penicillin G, 100 μg/ml streptomycin for 4-6 hour. Then, cells were co-transfected with 8 μg of construct which encodes either MT1 or MT2 (de-Tangonized constructs) and […] of Glosensor DNA. Next day, transfected cells were seeded into poly-L-lysinecoated 384-well white clear bottom cell culture plates with complete DMEM with 1% dialized FBS at a density of 20,000 cells per well for another 24 h. The next day, cell medium were discarded and loaded with 20 μl of assay buffer (1×HBSS, 20 mM HEPES, pH 7.4, 0.1% BSA). To measure agonist activity of MT1 or MT2 receptor, 10 μl of test compound solution at 3× final concentration was added for 15 minutes followed by addition of 10 μl of luciferin/isoproterenol mixture (at a final concentration of 4 mM and 200 nM respectively) for another 15 mins for luminescence quantification. Then, plates were counted using SpectraMax luminescence reader (Molecular Device). Data were analyzed using GraphPad Prism 6.0.

[2] = target: T1, hMT1; assay: 2-[125I]-iodomelatonin competition binding, CHO cell membranes; settings: read-out: Ki at MT1
Experimental: For receptor binding studies, '7447 was dissolved in 50% DMSO/50% ethanol for 13 mM stock solution, diluted 1/10 in 100% ethanol then 1/10 again in 50% ethanol/50% Tris-HCl buffer. Both '3384 and '4226 were dissolved in 100% ethanol for 13 mM stock solutions and then diluted 1/10 in 50% ethanol/50% Tris-HCl buffer. Further dilutions were done in Tris-HCl buffer.
Assays were incubated for 1 hour at 25° C. Bound radioligand was separated from freeby rapidvacuum filtration using glass microfiber filters (Whatman, Krackeler Scientific, Inc., Albany N.Y., USA) saturated in 0.5% polyethylenimine solution.
Affinity shifts or lack thereof with G protein inactivation indicate apparent efficacy (Lefkowitz, R. J. et al., J Biol Chem 251, 4686-4692, 1976) as ligands are classified as agonists (ΔpKi% MLT>20%), antagonists (ΔpKi% MLT<20%, >−20%), or inverse agonists (ΔpKi% MLT<−20%) accordingly.

[3] = tested on: C3H/HeN mice; assay: Re-entrainment of running wheel activity after 6 h advance of dark onset (jet-lag model); assay type: in vivo; settings: 30 μg/mouse s.c., in words; for rate of re-entrainment to the new light-dark cycle: 3 days, WT
Description: Male and female C3H/HeN (C3H) wild-type (WT), MT1 knockout (MT1KO), and MT2 knockout (MT2KO) mice (average 6.28 months) used in this study were raised in our breeding colony at University at Buffalo. […] Genotype was confirmed using tail samples at the end of each experiment and was verified periodically during the tenure of the colony. The strains of mice in our breeding colony were re-derived periodically by backcrossing with WT mice to reduce genetic drift.
Mice were group housed (3-5 per cage) with corncob bedding in polycarbonate translucent cages (30×19 cm) and maintained in a 14/10 light-dark (LD) cycle (Zeitgeber time 0 or ZT0 corresponds to Lights ON and ZT 14 to Lights OFF) in temperature and humidity controlled rooms with ad libitum access to food and water in the Laboratory Animal Facility at the University at Buffalo. Light levels were 200-300 lux at the level of the cage. Treatments and animal care performed in the dark were under a dim red safelight (15 watts, Kodak 1A filter) with illuminance of less than 3-5 lux (Benloucif, S. & Dubocovich, M. L. J Biol Rhythms 11, 113-125, (1996). All experimental procedures using mice were conducted in accordance with guidelines set forth by the National Institutes of Health and approved by the University at Buffalo Institutional Animal Care and Use Committee.
Circadian rhythm phase was determined for each mouse using the onset of running wheel activity defined as CT12 (Circadian Time 12). Running wheel activity was measured continuously via magnetic microswitches detecting wheel revolutions with a computer equipped with Clocklab data collection Software™ (Actimetrics: Wilmette, Ill.). All actigraphy data was visualized and analyzed using ClockLab™ and MATLAB™ software. All mice were individually housed in cages (33×15 cm) equipped with running wheels in light-tight ventilated cabinets with controlled temperature and LD cycles (Phenome Technologies: Skokie, Ill.). Male and female mice were housed in separate cabinets for all experiments.
Male and female C3H WT, MT1KO, and MT2KO mice (3 to 6 months) were maintained under a 12:12 LD cycle for at least 2 weeks prior experimental manipulations to allow stable entrainment to dark onset before advance of the LD cycle. Actigraphy data was recorded as described above and all experiment protocols performed as described (Dubocovich, M. L. et al., J Pineal Res 39, 113-120, 2005). On the first day of treatment, the dark onset was advanced 6 h. […] Post treatment, mice were given 14-20 days to re-entrain running wheel activity onsets to the new dark onset. Using exported running wheel activity onsets from actograms, onset hours advanced each day were determined by subtracting this value each day from the average onset of running wheel activity for 3 days prior to treatment for each mouse. Further, using the data from this calculation combined with visualization of actograms, the number of days to reach stable re-entrainment was determined for each mouse.
All statistical analyses as described in further detail for each experiment were conducted using GraphPad Prism 8™ (La Jolla, Calif.). All data sets were visualized for normality using QQ plots of predicted vs. actual residuals. Actigraphy data was generated for visualization blind to treatment prior to the quantification and statistical analysis stages. […] Data in FIGS. 4F & 4G were compared via a two-way ANOVA (3×2: genotype x treatment) with Tukey's post hoc analyses (P<0.05). […]

[4] = tested on: 318 other GPCRs; assay: PRESTO-Tango GPCR-ome counter-screen, agonist mode; assay type: cell-based; settings: arrestin recruitment Tango, in words
Experimental: Screening of compounds in the PRESTO-Tango GPCR-ome was accomplished as previously described (Kroeze, supra). with several modifications. First, HTLA cells were plated in DMEM with 10% FBS and 10 U/mL penicillin-streptomycin. Next, the cells were transfected using an in-plate PEI method (Longo, P. A. et al., Methods Enzymol 529, 227-240, 2013). PRESTO-Tango receptor DNAs were resuspended in OptiMEM and hybridized with PEI prior to dilution and distribution to 384-well plates and subsequent addition to cells. After overnight incubation, drugs were added to cells without replacement of the medium. The remaining steps of the PRESTO-Tango protocol were followed as previously described.

[5] = Schild analysis, competitive antagonism of melatonin
[6] = inverse agonist, increase of basal cAMP, read-out: EC50 at MT1

T1 sequence (P48039 whole entry): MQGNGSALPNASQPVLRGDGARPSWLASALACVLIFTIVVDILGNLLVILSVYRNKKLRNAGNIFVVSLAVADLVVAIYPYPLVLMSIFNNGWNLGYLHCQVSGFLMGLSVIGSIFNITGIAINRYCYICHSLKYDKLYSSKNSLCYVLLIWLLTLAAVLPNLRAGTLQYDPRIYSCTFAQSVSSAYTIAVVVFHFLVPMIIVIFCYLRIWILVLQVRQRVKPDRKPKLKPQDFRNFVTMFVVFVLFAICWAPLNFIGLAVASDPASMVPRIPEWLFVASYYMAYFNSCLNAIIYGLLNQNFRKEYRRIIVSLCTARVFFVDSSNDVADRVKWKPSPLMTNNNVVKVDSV

Compound | hMT1 pEC50 [1] | Ki ([2]; in the absence of GTP) [nM] | Ki ([2]; with GTP (100 μM)) [nM] | hMT1 Schild slope [1, 5] | inverse agonist efficacy [1] [%] | selectivity for MT1 over MT2 [1] [fold] | EC50 [1, 6] [nM] | rate of re-entrainment to the new light-dark cycle [3] | off-target agonist activity [4] | further results
COc1ccc(Br)c(CNc2cccnc2)c1 [ZINC128734226] | 6.83±0.17 | – | – | – | – | – | – | – | – | Emax ([1]; HEK293, FIG. 3F, normalized to maximal melatonin effect, read-out: hMT1 Emax): 79 ± 3%; Emax ([1]; HEK293, Table 2, agonist, normalized to melatonin response, read-out: MT1 % Emax (converted)): 79%; Emax ([1]; HEK293, Table 4, agonist, read-out: Emax % MT1): 48%; pIC50 MT1 ([1]; Table 4, agonist): 6.8
Clc1ccc(CNc2cccc(-c3nnc[nH]3)c2)c(Br)c1 [ZINC555417447] | 7.39±0.10 | 304 | 7.5 | 0.98±0.03 | 62 | 50 | 41 | decelerated re-entrainment | Neither of the two inverse agonists had significant activity against any of the 318 receptors | Emax ([1]; HEK293, FIG. 3D-3E, normalized to isoproterenol-stimulated basal activity, read-out: hMT1 Emax): -62 ± 13%; Emax ([1]; HEK293, Table 2, cell marked Inverse (inverse agonist), read-out: MT1 % Emax (converted)): 62%; hMT1 pKB [1, 5]: 7.4±0.1; EC50 ([1]; Table 4, IA (inverse agonist), read-out: pEC50 MT1 (IA) (converted)): 50.1 nM; effect on re-entrainment in MT1KO mouse ([3]; MT1KO): eliminated; effect on re-entrainment in MT2KO mice ([3]; MT2KO): greater deceleration
CC(C)c1ccc(CNc2cccc(-c3ncn[nH]3)c2)cc1 [ZINC157673384] | 7.68±0.09 | 938 | 63 | 0.80±0.04 | 47 | 30 | 21 | decelerated re-entrainment | Neither of the two inverse agonists had significant activity against any of the 318 receptors | hMT1 Emax ([1]; FIG. 3D-3E, normalized to isoproterenol-stimulated basal activity): −47±12%; hMT1 pA2 [1, 5]: 7.9±0.1; MT1 % Emax ([1]; Table 2, cell marked Inverse (inverse agonist)): 47 ± 12%; pEC50 MT1 (IA) ([1]; Table 4, IA (inverse agonist)): 7.7
